This is an account of results in patent publication US20170336420A1, “METHODS AND KITS FOR TREATING CARDIOVASCULAR DISEASES” (RAPPAPORT FAMILY INSTITUTE FOR RESEARCH IN THE MEDICAL …, priority 2014, published 2017).

Read-outs that look alike come from different tables or passages of the source.

The conditions of data set [1]: for HDL Y1 (mean) / LDL Y1 (mean) / TG Y1 (mean): year 1. The text has this:
(§1) AIM-HIGH (clinicaltrials.gov NCT00120289) was a randomized double blind clinical trial which set out to test the HDL hypothesis—that raising HDL would reduce CVD events. This hypothesis was based on epidemiological data showing that individuals with higher HDL had lower CVD. AIM-HIGH set out to raise HDL via the drug niacin. The 3414 participants in AIM HIGH were randomly assigned to receive extended release niacin 1500-2000 g/day vs placebo. All participants received simvastatin. The primary endpoint was the first event of the composite of death from coronary heart disease, nonfatal myocardial infarction, ischemic stroke, hospitalization for an acute coronary syndrome, or symptom driven coronary or cerebral revascularization.
70 Hp 1-1 and 70 Hp 2-2 DM AIM HIGH participants, with half in the niacin and half in the placebo group, were randomly selected by the AIM HIGH coordinating center for analysis for HDL metrics at baseline and one year into the study.

For data set [2], the system named is Murine macrophage J774 cells. To be noted: Hp 1-1 group, baseline vs 1 year on niacin. The procedure:
Serum induced reverse cholesterol transport function and HDL antioxidant function were measured in 70 Hp 1-1 and 70 Hp 2-2 participants from the AIM HIGH study at baseline and at one year after randomization to placebo or niacin.
This AIM HIGH substudy was approved by the AIM HIGH steering committee and was designed to investigate whether the Hp phenotype influenced HDL functional metrics in DM participants in AIM HIGH. All 1140 DM participants in AIM HIGH were subjected to Hp phenotyping. Functional HDL metrics (RCT and antioxidant function) was evaluated at baseline and at one year of treatment in 70 Hp 1-1 and 70 Hp 2-2 DM individuals with half in the niacin and half in the placebo group. In 20 Hp 1-1 and 20 Hp 2-2 DM individuals the amount of Hb associated with the HDL at baseline was measured. […]
Measurement of HDL efflux capacity was performed as previously described. […] Liquid scintillation counting was then determined in 500 μl of the medium collected from each well as well as in the cells after washing the cells twice with PBS and lysing them in 0.1 N NaOH. Cholesterol efflux capacity was determined as the percentage efflux of total counts per minute in the medium divided by the total counts per minute in the medium and in the cells and after subtraction of the nonspecific efflux obtained in cells incubated in the absence of serum.

Data set [3] deals with ApoB depleted serum. Here is the method: (§2) This AIM HIGH substudy was approved by the AIM HIGH steering committee and was designed to investigate whether the Hp phenotype influenced HDL functional metrics in DM participants in AIM HIGH. All 1140 DM participants in AIM HIGH were subjected to Hp phenotyping. Functional HDL metrics (RCT and antioxidant function) was evaluated at baseline and at one year of treatment in 70 Hp 1-1 and 70 Hp 2-2 DM individuals with half in the niacin and half in the placebo group. In 20 Hp 1-1 and 20 Hp 2-2 DM individuals the amount of Hb associated with the HDL at baseline was measured. Individuals performing all functional assays were blinded to treatment assignment of all samples used for this study.
(§3) The amount of total oxidation and HDL anti-oxidant function were assessed in apolipoprotein (apo)-B depleted serum using the fluorescent and oxidation-sensitive agent dihydrorhodamine 123 (DHR). Apo-B depleted serum was prepared using polyethylene glycol (PEG) as previously described in Asztalos BF, de la Llera-Moya M, Dallal G E, Horvath K V, Schaefer E J, Rothblat G H. Differential effects of HDL subpopulations on cellular ABCA1- and SR-BI-mediated cholesterol efflux. J Lipid Res. 2005; 46:2246-2253
(§4) Briefly-serum samples were treated with PEG solution to precipitate apoB-containing lipoproteins by adding 40 parts PEG solution (20% PEG in 200 mM glycine buffer, pH 7.4) to 100 parts serum. After a 20 min incubation, the precipitate was removed by high-speed centrifugation (10,000 rpm, 30 min, 4° C.) to obtain the PEG supernatant containing the HDL lipoprotein fraction.
(§5) Duplicates of 20 μl of apo-B-depleted serum were transferred to clear-bottom 96-well plates, and 180 μl of iron-free Hepes-buffered saline (HBS) containing 50 μM DHR was then added. Immediately after the addition of DHR, the kinetics of fluorescence increase was followed in a BMG Galaxy Fluostar microplate reader at 37° C. with a 485/538 nm excitation/emission filter pair with repeated readings every 2 minutes up to 40 minutes. Total oxidation was calculated as the rate of DHR oxidation (fluorescent units (FU)/min) for each duplicate after subtracting the rate of DHR oxidation observed using the same conditions but in the absence of serum.

The test system of data set [4] is HDL. The procedure: as §2, §3, §4, §5
HDL anti-oxidation function represents a fraction of the total oxidation prevented by HDL (in which case HDL is behaving as an antioxidant) or provoked by HDL (in which case HDL is behaving as a pro-oxidant) within each sample. To calculate HDL anti-oxidant function, HDL was depleted by immunoprecipitation from apo-B-depleted serum using anti-human apoA1 antibody and protein A/G Sepharose, before duplicates of corrected volumes of remnant apo-B- and Apo-A-depleted serum were transferred to 96-well plates and the rate of DHR oxidation measured in the identical manner and in parallel with the measurement of total oxidation as described above.

Data set [5] concerns AIM HIGH participants. To be noted: cited from earlier work.
The conditions of data set [6]: all participants; increased from mean of 35 mg/dl; cited from earlier work.
The test system of data set [7] is AIM HIGH participants. Nature of the data set: AIM-HIGH randomized double blind clinical trial, primary composite endpoint of CVD events, also segregated by Hp type. The format is in vivo, human. To be noted: DM participants.
Text: as §1, with “The 3414 participants in AIM HIGH were randomly assigned to receive extended release niacin 1500-2000 g/day vs placebo.” left out
Hp typing was performed by the inventors using polyacrylamide gel electrophoresis. Data on Hp typing was returned to the AIM HIGH coordinating center which provided the event rates in these participants segregated by Hp type and treatment (monotherapy with statins only or combination therapy with statins plus niacin).

The conditions of data set [8]: a little more than a year of treatment; cited from earlier work.
For data set [9] the following is noted: patients who had a recent acute coronary syndrome; cited from earlier work.
Data set [10] concerns HDL. To be noted: Hp 2-2 DM individuals; three independent studies; cited from earlier work.
For data set [11] the following is noted: Hp 2-2 genotype individuals with diabetes mellitus; cited from earlier work.
Setting [12] is: Hp 1-1 niacin group, at one year vs baseline.
[13] abbreviates: Hp 2-2 niacin group, at one year vs baseline.

With `O=C(O)c1cccnc1` [niacin, pyridine-3-carboxylic acid], the “HDL Y1 (mean)” value in data set [1] (Hp 11 niacin group, HDL base 33.91) is on record as 40.94; in data set [1] (Hp 22 niacin group, HDL base 33.74), 43.29. Moreover, the “LDL Y1 (mean)” value in data set [1] (Hp 11 niacin group, LDL base 81.18) is given as 67.71; in data set [1] (Hp 22 niacin group, LDL base 65.91), 64.15. Also, the “TG Y1 (mean)” value is recorded as 174.97 in data set [1] (Hp 11 niacin group, TG base 193.12) and 164.50 in data set [1] (Hp 22 niacin group, TG base 211.88). Further, the “HDL mass (in words)” value in data set [1] (both Hp 1-1 and Hp 2-2 DM individuals) is recorded as “significant increase in HDL mass”. Also, the “increase in median efflux” value in data set [2] is reported as 14%. Further, the “change in total oxidation (in words)” value in data set [3] (Hp 1-1 individuals) is “significant decrease”; in data set [3] (Hp 2-2 individuals), “significant increase in total oxidation”. The “total oxidation decreased by” value in data set [3] (setting [12]) is given as 19.1±3.4 oxidation units. Moreover, the “total oxidation increased by” value in [3] (setting [13]) is listed as 13.4±5.0 oxidation units. For the same molecule, the “change in HDL antioxidant function (in words)” value in data set [4] (Hp 1-1 individuals) is “improved”; in [4] (Hp 1-1 individuals, listed as Niacin), “increase in HDL antioxidant function”; in data set [4] (Hp 2-2 individuals) it was “worsened”; in [4] (Hp 2-2 individuals, listed as Niacin), “significant decline in the antioxidant function”. In data set [4] (setting [12]), the “HDL antioxidant function increased by” value is recorded as 10.8±2.3 units. Further, in data set [4] (setting [13]), the “HDL antioxidant function decreased by” value stood at 8.3±2.9 units. Also, the “primary endpoint occurred in patients” value in [5] (all 3414 participants, extended release niacin 1500-2000 g/day, all received simvastatin, mean follow up 3 years) is 282 patients. The “primary endpoint, % of group” value in data set [5] (all participants, niacin group, all received simvastatin, mean follow up 3 years) is on record as 16.4%. Also, the “HR for primary endpoint” value in data set [5] (niacin group vs placebo group, all participants) is on record as 1.02. Moreover, the “HDL, mean on treatment” value in [6] was 42 mg/dL.

On to `CCC(C)(C)C(=O)O[C@H]1C[C@@H](C)C=C2C=C[C@H](C)[C@H](CC[C@@H]3C[C@@H](O)CC(=O)O3)[C@H]21` [Simvastatin], for which, in data set [7] (HP1-1), the “% Primary Event, % of N in this category” value is on record as “(24.0%)”; the “Event Rate” value came to 0.0803; the “N Primary Event” value worked out at 23. In data set [7] (HP2-1), the “% Primary Event, % of N in this category” value is “(17.9%)”; the “Event Rate” value came to 0.0582; the “N Primary Event” value was 46. Besides, in data set [7] (HP2-2), the “% Primary Event, % of N in this category” value is recorded as “(16.3%)”; the “Event Rate” value worked out at 0.0532; the “N Primary Event” value turned out to be 33.

Turning to `CC(C)c1c(C(=O)Nc2ccccc2)c(-c2ccccc2)c(-c2ccc(F)cc2)n1CC[C@@H](O)C[C@@H](O)CC(=O)O` [Atorvastatin®, Atorvastatin], in data set [8], the deaths is 51.

For the molecule `CCC(CC)CC1(C(=O)Nc2ccccc2SC(=O)C(C)C)CCCCC1` [Dalcetrapib®, S-[2-({[1-(2-ethylbutyl)cyclohexyl]carbonyl}amino)phenyl] 2-methylpropanethioate], in data set [9], the “HDL cholesterol levels (in words)” value is reported as “increase HDL cholesterol levels” and the “risk of recurrent cardiovascular events (in words)” value is “did not reduce the risk of recurrent cardiovascular events”.

As to vitamin E, the “RCT function (in words)” value in data set [10] was “restore and significantly improve RCT function”. For the same molecule, the “risk for cardiovascular diseases (in words)” value in data set [11] is “reduces the risk for cardiovascular diseases”.
